We go through 19 compounds from ChEMBL document CHEMBL1138227, “N1-substituted thymine derivatives as mitochondrial thymidine kinase (TK-2) inhibitors” (J Med Chem, 2006).

Where only a bound is given, the exact number is not on record here.

One assay deals with T1, Thymidine kinase (Human alphaherpesvirus 1, UniProt Q9QNF7).
T1 sequence (Q9QNF7 whole entry): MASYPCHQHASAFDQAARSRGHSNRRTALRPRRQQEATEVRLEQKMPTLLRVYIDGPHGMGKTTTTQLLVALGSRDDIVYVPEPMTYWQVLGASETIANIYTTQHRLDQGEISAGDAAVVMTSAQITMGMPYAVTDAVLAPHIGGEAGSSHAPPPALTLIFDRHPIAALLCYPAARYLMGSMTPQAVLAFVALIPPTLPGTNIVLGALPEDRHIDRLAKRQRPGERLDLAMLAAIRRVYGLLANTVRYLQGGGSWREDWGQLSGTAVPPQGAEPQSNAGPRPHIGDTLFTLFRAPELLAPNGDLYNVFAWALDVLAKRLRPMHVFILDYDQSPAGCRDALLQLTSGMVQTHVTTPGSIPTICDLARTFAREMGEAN
Briefly: Inhibition of [3H]methyl dThd phosphorylation by HSV1 TK.

Assay [1] addresses T2, Thymidine kinase 2, mitochondrial (Homo sapiens, UniProt O00142).
T2 sequence (O00142 whole entry): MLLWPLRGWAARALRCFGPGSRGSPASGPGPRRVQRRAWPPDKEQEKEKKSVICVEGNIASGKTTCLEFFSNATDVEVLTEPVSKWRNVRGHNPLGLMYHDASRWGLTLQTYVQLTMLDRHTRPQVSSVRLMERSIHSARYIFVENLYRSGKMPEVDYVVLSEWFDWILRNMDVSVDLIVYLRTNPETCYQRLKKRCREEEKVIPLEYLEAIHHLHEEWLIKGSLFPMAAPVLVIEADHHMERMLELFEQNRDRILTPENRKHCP
Briefly: Inhibition of [3H]methyl dThd phosphorylation by TK2.

The target in the next assay is T3, Deoxynucleoside kinase (Drosophila melanogaster, UniProt Q9XZT6).
T3 sequence (Q9XZT6 whole entry): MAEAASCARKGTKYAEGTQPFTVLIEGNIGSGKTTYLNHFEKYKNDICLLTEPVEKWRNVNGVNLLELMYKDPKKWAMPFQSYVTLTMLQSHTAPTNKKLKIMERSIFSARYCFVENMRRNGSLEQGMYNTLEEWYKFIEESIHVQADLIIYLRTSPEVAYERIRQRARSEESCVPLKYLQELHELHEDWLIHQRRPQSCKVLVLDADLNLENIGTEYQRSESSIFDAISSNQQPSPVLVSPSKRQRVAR
Briefly: Inhibition of [3H]methyl dThd phosphorylation by Drosophila melanogaster dNK.

A short description of assay [2]: Cytotoxicity against human OST TK- cells expressing HSV1 TK in presence of 10 uM 1-[6-[1,1-(diphenyl)-1-(4-pyridyl)methoxy]hexyl]thymine. The assay is classed as cell-based.
A short description of assay [3]: Cytotoxicity against human OST TK- cells expressing HSV1 TK in presence of 2.5 uM 1-[6-(triphenylmethoxy)hexyl]thymine. The assay is classed as cell-based.
The nature of assay [4]: Cytotoxicity against human OST TK- cells expressing HSV1 TK in presence of 5 uM 1-[6-[1,1-(diphenyl)-1-(4-pyridyl)methoxy]hexyl]thymine. The assay is classed as cell-based.
A short description of assay [5]: Cytotoxicity against human OST TK- cells expressing HSV1 TK in presence of 10 uM 1-[6-(triphenylmethoxy)hexyl]thymine. The assay is classed as cell-based.
The nature of assay [6]: Cytotoxicity against human OST TK- cells expressing HSV1 TK in presence of 2.5 uM 1-[6-[1,1-(diphenyl)-1-(4-pyridyl)methoxy]hexyl]thymine. The assay is classed as cell-based.
The nature of assay [7]: Cytotoxicity against human OST TK- cells expressing HSV1 TK in presence of 5 uM 1-[6-(triphenylmethoxy)hexyl]thymine. The assay is classed as cell-based.
Assay [8] deals with T2, Thymidine kinase 2, mitochondrial. Put plainly: Inhibition of TK2.
Assay [9] in a line: Cytotoxicity against human OST TK- cells expressing HSV1 TK. The assay is classed as cell-based.

In general, IC50 refers to the concentration that gives 50% inhibition. With `Cc1cn(C/C=C\COC(c2ccccc2)(c2ccccc2)c2ccc(Cl)cc2)c(=O)[nH]c1=O`, the IC50 turned out to be 18 µM at Thymidine kinase, 2.4 µM in assay [1] and 5.7 µM against Deoxynucleoside kinase.
For `Cc1cn(CCCOC(c2ccccc2)(c2ccccc2)c2ccccc2)c(=O)[nH]c1=O`, in that order: 46 µM, 45 µM and 21 µM.
For `Cc1cn(CCCCCCOC(c2ccccc2)(c2ccccc2)c2cc[n+](C)cc2)c(=O)[nH]c1=O`, in that order: 41 µM, 23 µM and 29 µM.
For `Cc1cn(CCCCCCCOC(c2ccccc2)(c2ccccc2)c2ccccc2)c(=O)[nH]c1=O`, in that order: ≥ 50 µM, 4.7 µM and 32 µM.
Regarding `Cc1cn(CCCCCCOC(c2ccccc2)(c2ccccc2)c2ccccc2)c(=O)[nH]c1=O`, the IC50 against Thymidine kinase amounted to 3.7 µM; in assay [2], 41 nM; in assay [3] it was 55 nM; in [4], 33 nM; in assay [1] it was 0.5 µM; against Deoxynucleoside kinase, 17 µM. The IC50 in assay [5] worked out at 150 nM; in assay [6], 18 nM; in assay [7], 100 nM.
Regarding `Cc1cn(CCOCCOC(c2ccccc2)(c2ccccc2)c2ccncc2)c(=O)[nH]c1=O`, the IC50 at Thymidine kinase was 21 µM; in assay [1] it was 23 µM; against Deoxynucleoside kinase, 35 µM.
For `Cc1cn(C/C=C\COC(c2ccccc2)(c2ccccc2)c2cc[n+](C)cc2)c(=O)[nH]c1=O`, in that order: > 500 µM, 114 µM and 144 µM.
In the case of `Cc1cn(CCCCCOC(c2ccccc2)(c2ccccc2)c2ccccc2)c(=O)[nH]c1=O`, the IC50 against Thymidine kinase came to 32 µM; in [1], 2.5 µM; against Deoxynucleoside kinase, 15 µM.
In the case of `CNC(=O)c1ccc(C(OC/C=C\Cn2cc(C)c(=O)[nH]c2=O)(c2ccccc2)c2ccccc2)cc1`, the IC50 against Thymidine kinase amounted to 42 µM; in assay [1], 1.9 µM; against Deoxynucleoside kinase, 1.6 µM.
For `Cc1cn(CCOCCOC(c2ccccc2)(c2ccccc2)c2ccccc2)c(=O)[nH]c1=O`, in that order: 17 µM, 9.7 µM and 56 µM.
In the case of `Cc1cn(C/C=C\COC(c2ccccc2)(c2ccccc2)c2ccccc2)c(=O)[nH]c1=O`, the IC50 against Deoxynucleoside kinase came to 3.3 µM.
As to `CNC(=O)c1ccc(C(OCCCCCCn2cc(C)c(=O)[nH]c2=O)(c2ccccc2)c2ccccc2)cc1`, the figures for the IC50 (against Thymidine kinase; in assay [1]; against Deoxynucleoside kinase) were 0.7 µM, 0.39 µM and 3.5 µM, respectively.
As usually defined, the Ki is the equilibrium dissociation constant of an inhibitor or competing ligand from its target. A low value points to a stronger hold on the target. On to `Cc1cn(CCCCCCOC(c2ccccc2)(c2ccccc2)c2ccncc2)c(=O)[nH]c1=O`, for which the IC50 was determined as 2 µM at Thymidine kinase; 110 nM in [2]; 120 nM in assay [3]; 81 nM in assay [4]; 0.47 µM in assay [1]; 2.7 µM against Deoxynucleoside kinase. Further, the IC50 came to 370 nM in [5], 50 nM in assay [6] and 240 nM in [7]. Further, in assay [8], the Ki turned out to be 290 nM.
With `Cc1cn(CCOCCOC(c2ccccc2)(c2ccccc2)c2ccc(Cl)cc2)c(=O)[nH]c1=O`, the IC50 against Thymidine kinase was 2.7 µM; in [1], 5.2 µM; at Deoxynucleoside kinase, 45 µM.
With `Cc1cn([C@@H]2O[C@H](CO)[C@@H](O)[C@@H]2O)c(=O)[nH]c1=O`, the IC50 in assay [2] turned out to be 370 nM; in assay [3], 55 nM; in [4], 240 nM; in assay [5], 150 nM; in assay [6] it was 120 nM; in [9], 6.2 nM. Moreover, the IC50 in assay [7] came to 100 nM.
Regarding `Cc1cn(CCCCCCCCOC(c2ccccc2)(c2ccccc2)c2ccccc2)c(=O)[nH]c1=O`, the IC50 against Thymidine kinase was > 500 µM; in assay [1] it was 45 µM; at Deoxynucleoside kinase, 30 µM.
For `Cc1cn(CCCCCCOC(c2ccccc2)(c2ccccc2)c2ccc(Cl)cc2)c(=O)[nH]c1=O`, in that order: 1 µM, 1.9 µM and 47 µM.
In the case of `Nc1nc2c(ncn2COC(CO)CO)c(=O)[nH]1` [GANCICLOVIR], the IC50 amounted to 110 nM in assay [2]; 18 nM in assay [3]; 81 nM in assay [4]; 41 nM in assay [5]; 50 nM in assay [6]; 1.9 nM in assay [9]. Moreover, in assay [7], the IC50 was determined as 33 nM.
As for `Cc1cn(C/C=C\COC(c2ccccc2)(c2ccccc2)c2ccncc2)c(=O)[nH]c1=O`, the IC50 at Thymidine kinase was 25 µM; in [1], 1.8 µM; on Deoxynucleoside kinase it was 3.4 µM.
